Test results: patent publication US20070128217A1 (priority 2003, published 2007)

Assays:
[1] = test system: rabbit serum obtained by immunizing a rabbit with the SARS-CoV strain Frankfurt 1; assay type: binding; set-up: Binding of a rabbit serum to linear peptides / Binding of a rabbit serum to looped peptides / Rabbit serum linear peptides / Rabbit serum looped peptides / Binding of a rabbit serum to linear peptides of protein N of SARS-CoV Urbani (Rabbit serum linear peptides) / Binding of a rabbit serum to looped/cyclic peptides of protein N of SARS-CoV Urbani (Rabbit serum looped peptides): unit not given here
[2] = test system: recombinant human anti-SARS-CoV antibody 03-018; assay type: binding; set-up: Binding of antibody 03-018 to linear peptides of the N protein of SARS-CoV Urbani / Binding of antibody 03-018 to looped/cyclic peptides of the N protein of SARS-CoV Urbani: unit not given here
[3] = test system: control sera (pooled serum of ten healthy LUMC hospital workers; commercial negative donor pooled serum from the Dutch bloodbank); assay type: binding, human; set-up: Binding of Control serum LUMC to linear peptides / Binding of Control serum Blood-bank to linear peptides / Binding of Control serum LUMC to looped peptides / Binding of Control Serum Blood-Bank to Looped peptides / Binding of Control serum LUMC to linear peptides of the protein M of SARS-CoV Urbani / Binding of Control serum Blood-bank to linear peptides of the protein M of SARS-CoV Urbani / Binding of Control serum LUMC to looped peptides of the protein M of SARS-CoV Urbani / Binding of Control Serum Blood-Bank to Looped peptides of the protein M of SARS-CoV Urbani: unit not given here
[4] = test system: antibodies in sera from SARS patients (sera 1a, 1b, 2, 6, 37, 62, London, SARS-yellow, SARS-green); assay type: binding, human; set-up: Binding of serum 6 to linear peptides of protein X1 of SARS-CoV Urbani / Binding of serum 37 to linear peptides of protein X1 of SARS-CoV Urbani / Binding of serum 6 to looped/cyclic peptide (PEPSCAN-ELISA) / Binding of serum 37 to looped/cyclic peptide (PEPSCAN-ELISA) / Binding of serum 37 to looped/cyclic peptides of protein X1 of SARS-CoV Urbani / Binding of serum 6 to linear peptides of protein X2 / Binding of serum 37 to linear peptides of protein X2 / Binding of serum 37 to looped/cyclic peptides of protein X2 of SARS-CoV Urbani / Binding of serum 6 to linear peptides of protein M of SARS-CoV Urbani / Binding of serum 37 to linear peptides of protein M of SARS-CoV Urbani / Binding of serum 6 to looped/cyclic peptides of protein M of SARS-CoV Urbani / Binding of serum 37 to looped/cyclic peptides of protein M of SARS-CoV Urbani / Binding of serum 6 to linear peptides of protein X3 of SARS-CoV Urbani / Binding of serum 37 to linear peptides of protein X3 of SARS-CoV Urbani / Binding of serum 37 to looped/cyclic peptides of protein X3 of SARS-CoV Urbani / Binding of serum 6 to linear peptides of protein X4 of SARS-CoV Urbani / Binding of serum 37 to linear peptides of protein X4 of SARS-CoV Urbani / Binding of serum 37 to looped/cyclic peptides of protein X4 of SARS-CoV Urbani / Binding of serum 6 to linear peptides of protein X5 of SARS-CoV Urbani / Binding of serum 37 to linear peptides of protein X5 of SARS-CoV Urbani / Binding of serum 37 to looped/cyclic peptides of protein X5 of SARS-CoV Urbani / Binding of serum 6 to linear peptides of protein N of SARS-CoV Urbani / Binding of serum 37 to linear peptides of protein N of SARS-CoV Urbani / Binding of serum 6 to linear peptide (PEPSCAN-ELISA) / Binding of serum 1a to looped/cyclic peptides of protein N of SARS-CoV Urbani / Binding of serum 1b to looped/cyclic peptides of protein N of SARS-CoV Urbani / Binding of serum 2 to looped/cyclic peptides of protein N of SARS-CoV Urbani / Binding of serum 6 to looped/cyclic peptides of protein N of SARS-CoV Urbani / Binding of serum 37 to looped/cyclic peptides of protein N of SARS-CoV Urbani / Binding of serum 62 to looped/cyclic peptides of protein N of SARS-CoV Urbani / Binding of serum London to looped/cyclic peptides of protein N of SARS-CoV Urbani / Binding of serum SARS-green to looped/cyclic peptides of protein N of SARS-CoV Urbani: unit not given here

RSRGNSRNSTPGSSR
0.2: Binding of antibody 03-018 to looped/cyclic peptides of the N protein of SARS-CoV Urbani [2] | Binding of serum 2 to linear peptide (PEPSCAN-ELISA) [4] | Binding of serum 2 to looped/cyclic peptides of protein N of SARS-CoV Urbani [4] | Binding of serum 6 to linear peptide (PEPSCAN-ELISA) [4] | Binding of serum 6 to looped/cyclic peptides of protein N of SARS-CoV Urbani [4] | Binding of serum 37 to looped/cyclic peptides of protein N of SARS-CoV Urbani [4] | Binding of serum London to looped/cyclic peptides of protein N of SARS-CoV Urbani [4] | Binding of serum SARS-green to linear peptide (PEPSCAN-ELISA) [4]
0.8: Binding of Control serum Blood-bank to linear peptides [3]
0.3: Binding of Control Serum Blood-Bank to Looped peptides [3] | Binding of Control serum LUMC to looped peptides [3] | Binding of serum 1a to looped/cyclic peptides of protein N of SARS-CoV Urbani [4]
0.4: Binding of a rabbit serum to linear peptides of protein N of SARS-CoV Urbani (Rabbit serum linear peptides) [1] | Binding of serum 1b to linear peptide (PEPSCAN-ELISA) [4]
0.5: Binding of serum London to linear peptide (PEPSCAN-ELISA) [4]
0.1: Binding of antibody 03-018 to linear peptides of the N protein of SARS-CoV Urbani [2] | Binding of serum 1b to looped/cyclic peptides of protein N of SARS-CoV Urbani [4] | Binding of serum 62 to looped/cyclic peptides of protein N of SARS-CoV Urbani [4] | Binding of serum SARS-green to looped/cyclic peptides of protein N of SARS-CoV Urbani [4] | Binding of serum SARS-yellow to looped/cyclic peptides of protein N of SARS-CoV Urbani [4]
1.1: Binding of a rabbit serum to looped/cyclic peptides of protein N of SARS-CoV Urbani (Rabbit serum looped peptides) [1]
0.7: Binding of serum 1a to linear peptide (PEPSCAN-ELISA) [4] | Binding of serum 37 to linear peptide (PEPSCAN-ELISA) [4]
0.6: Binding of Control serum LUMC to linear peptides [3] | Binding of serum 62 to linear peptide (PEPSCAN-ELISA) [4] | Binding of serum SARS-yellow to linear peptide (PEPSCAN-ELISA) [4]

SAAEASKKPRQKRTA
recognized in linear form: Recognition of the peptide by sera of SARS-CoV infected individuals, and form (linear, looped/cyclic) in which it is recognized [4]
0.1: Binding of antibody 03-018 to linear peptides of the N protein of SARS-CoV Urbani [2] | Binding of serum 1b to looped/cyclic peptides of protein N of SARS-CoV Urbani [4] | Binding of serum 6 to looped/cyclic peptides of protein N of SARS-CoV Urbani [4] | Binding of serum SARS-green to looped/cyclic peptides of protein N of SARS-CoV Urbani [4]
0.8: Binding of Control serum Blood-bank to linear peptides [3] | Binding of Control serum LUMC to linear peptides [3]
0.2: Binding of a rabbit serum to linear peptides of protein N of SARS-CoV Urbani (Rabbit serum linear peptides) [1] | Binding of antibody 03-018 to looped/cyclic peptides of the N protein of SARS-CoV Urbani [2] | Binding of serum 1a to looped/cyclic peptides of protein N of SARS-CoV Urbani [4] | Binding of serum 2 to looped/cyclic peptides of protein N of SARS-CoV Urbani [4] | Binding of serum SARS-yellow to looped/cyclic peptides of protein N of SARS-CoV Urbani [4]
0.3: Binding of a rabbit serum to looped/cyclic peptides of protein N of SARS-CoV Urbani (Rabbit serum looped peptides) [1] | Binding of serum 62 to looped/cyclic peptides of protein N of SARS-CoV Urbani [4] | Binding of serum London to looped/cyclic peptides of protein N of SARS-CoV Urbani [4]
0.4: Binding of Control Serum Blood-Bank to Looped peptides [3] | Binding of Control serum LUMC to looped peptides [3] | Binding of serum 37 to looped/cyclic peptides of protein N of SARS-CoV Urbani [4]

SAFFGMSRIGMEVTP
0.4: Binding of serum 1a to looped/cyclic peptides of protein N of SARS-CoV Urbani [4] | Binding of serum 2 to looped/cyclic peptides of protein N of SARS-CoV Urbani [4] | Binding of serum 62 to looped/cyclic peptides of protein N of SARS-CoV Urbani [4] | Binding of serum London to looped/cyclic peptides of protein N of SARS-CoV Urbani [4] | Binding of serum SARS-green to looped/cyclic peptides of protein N of SARS-CoV Urbani [4]
0.7: Control serum LUMC linear peptides [3] | Binding of serum 37 to linear peptides of protein N of SARS-CoV Urbani [4] | Binding of serum SARS-yellow to linear peptides of protein N of SARS-CoV Urbani [4]
0.1: Binding of antibody 03-018 to linear peptides of the N protein of SARS-CoV Urbani [2]
0.2: Binding of a rabbit serum to linear peptides of protein N of SARS-CoV Urbani (Rabbit serum linear peptides) [1] | Binding of antibody 03-018 to looped/cyclic peptides of the N protein of SARS-CoV Urbani [2] | Binding of serum 1b to linear peptides of protein N of SARS-CoV Urbani [4] | Binding of serum 2 to linear peptides of protein N of SARS-CoV Urbani [4] | Binding of serum 6 to linear peptides of protein N of SARS-CoV Urbani [4] | Binding of serum 6 to looped/cyclic peptides of protein N of SARS-CoV Urbani [4]
0.6: Control Serum Blood-Bank Looped peptides [3] | Binding of serum London to linear peptides of protein N of SARS-CoV Urbani [4]
0.5: Binding of a rabbit serum to looped/cyclic peptides of protein N of SARS-CoV Urbani (Rabbit serum looped peptides) [1] | Control serum LUMC looped peptides [3] | Binding of serum 37 to looped/cyclic peptides of protein N of SARS-CoV Urbani [4] | Binding of serum SARS-yellow to looped/cyclic peptides of protein N of SARS-CoV Urbani [4]
0.8: Control serum Blood-bank linear peptides [3] | Binding of serum 62 to linear peptides of protein N of SARS-CoV Urbani [4]
0.3: Binding of serum 1a to linear peptides of protein N of SARS-CoV Urbani [4] | Binding of serum 1b to looped/cyclic peptides of protein N of SARS-CoV Urbani [4] | Binding of serum SARS-green to linear peptides of protein N of SARS-CoV Urbani [4]
